Experimental data taken from patent EP0694535A1, “Non-peptidyl tachykinin receptor antagonists” (ELI LILLY AND COMPANY, priority 1994, dated 1996).

Tests used:
[1] = biological target: T1, NK-1 receptor (Homo sapiens, UniProt P25103); experiment: NK-1 Receptor Binding Assay (competition with labeled substance P on IM9 cells); settings: for inhibition at 10 µM: inhibition of substance P binding to the NK-1 receptor, read-out: Percent Inhibition; for IC50: concentration which inhibits fifty percent of the binding of substance P, 20 pM labeled substance P, 45 minutes at 4°C
T1 construct: an aliquot of IM9 cells; endogenous in cells; host or cells: IM9 cells (whole cells)
Procedure: Radioreceptor binding assays were performed using a derivative of a previously published protocol. D.G. Payan, et al., Journal of Immunology, 133:3260-3265 (1984). In this assay an aliquot of IM9 cells (1 x 10⁶ cells/tube in […] medium supplemented with 10% fetal calf serum) was incubated with 20 pM […] substance P in the presence of increasing competitor concentrations for 45 minutes at 4°C.
The IM9 cell line is a well-characterized cell line which is readily available to the public. See. e.g., Annals of the New York Academy of Science, 190: 221-234 (1972); Nature (London), 251:443-444 (1974); Proceedings of the National Academy of Sciences (USA), 71:84-88 (1974). These cells were routinely cultured in RPMI 1640 supplemented with 50 µg/ml gentamicin sulfate and 10% fetal calf serum.
The reaction was terminated by filtration through a glass fiber filter harvesting system using filters previously soaked for 20 minutes in 0.1% polyethylenimine. Specific binding of labeled substance P was determined in the presence of 20 nM unlabeled ligand.
Column 1 provides the example number of the test antagonist compound. The next columns detail the substitution patterns of the test compound.

[2] = biological target: T2, human NK-2 receptor (Homo sapiens, UniProt P21452); experiment: NK-2 Receptor Binding Assay (CHO-hNK-2R membranes, iodohistidyl-neurokinin A); settings: for inhibition at 10 µM: inhibition of neurokinin A binding at ten micromolar, read-out: Percent Inhibition @ 10 μM
T2 construct: expressed in transfected cells; host or cells: CHO-hNK-2R cells (CHO-derived), membrane preparation
T2 sequence (P21452 1-398): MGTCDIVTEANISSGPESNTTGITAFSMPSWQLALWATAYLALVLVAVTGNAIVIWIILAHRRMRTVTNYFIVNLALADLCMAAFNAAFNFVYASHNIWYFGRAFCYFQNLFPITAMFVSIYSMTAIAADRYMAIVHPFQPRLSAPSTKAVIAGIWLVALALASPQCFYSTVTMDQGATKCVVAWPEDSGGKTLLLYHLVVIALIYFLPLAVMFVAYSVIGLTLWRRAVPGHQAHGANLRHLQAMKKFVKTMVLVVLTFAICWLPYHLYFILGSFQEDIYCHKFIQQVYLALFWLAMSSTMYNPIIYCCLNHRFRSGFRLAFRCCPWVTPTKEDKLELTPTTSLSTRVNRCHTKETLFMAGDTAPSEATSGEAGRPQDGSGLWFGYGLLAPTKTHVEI
Procedure: The CHO-hNK-2R cells, a CHO-derived cell line transformed with the human NK-2 receptor, expressing about 400,000 such receptors per cell, were grown in 75 cm flasks or roller bottles in minimal essential medium (alpha modification) with 10% fetal bovine serum. The gene sequence of the human NK-2 receptor is given in N.P. Gerard, et al., Journal of Biological Chemistry, 265:20455-20462 (1990).
For preparation of membranes, 30 confluent roller bottle cultures were dissociated by washing each roller bottle with 10 ml of Dulbecco's phosphate buffered saline (PBS) without calcium and magnesium, followed by addition of 10 ml of enzyme-free cell dissociation solution (PBS-based, from Specialty Media, Inc.). After an additional 15 minutes, the dissociated cells were pooled and centrifuged at 1,000 RPM for 10 minutes in a clinical centrifuge. Membranes were prepared by homogenization of the cell pellets in 300 ml 50 mM Tris buffer, pH 7.4 with a Tekmar® homogenizer for 10-15 seconds, followed by centrifugation at 12,000 RPM (20,000 x g) for 30 minutes using a Beckman JA-14® rotor. The pellets were washed once using the above procedure. and the final pellets were resuspended in 100-120 ml 50 mM Tris buffer, pH 7.4, and 4 ml aliquots stored frozen at -70 °C. The protein concentration of this preparation was 2 mg/ml.
For the receptor binding assay, one 4-ml aliquot of the CHO-hNK-2R membrane preparation was suspended in 40 ml of assay buffer containing 50 mM Tris, pH 7.4, 3 mM manganese chloride, 0.02% bovine serum albumin (BSA) and 4 µg/ml chymostatin. A 200 µl volume of the homogenate (40 µg protein) was used per sample. The radioactive ligand was [[…]]iodohistidyl-neurokinin A (New England Nuclear, NEX-252), 2200 Ci/mmol. The ligand was prepared in assay buffer at 20 nCi per 100 µl; the final concentration in the assay was 20 pM. Non-specific binding was determined using 1 µM eledoisin. Ten concentrations of eledoisin from 0.1 to 1000 nM were used for a standard concentration-response curve.
All samples and standards were added to the incubation in 10 µl dimethylsulfoxide (DMSO) for screening (single dose) or in 5 µl DMSO for IC₅₀ determinations. The order of additions for incubation was 190 or 195 µl assay buffer, 200 µl homogenate, 10 or 5 µl sample in DMSO, 100 µl radioactive ligand. The samples were incubated 1 hr at room temperature and then filtered on a cell harvester through filters which had been presoaked for two hours in 50 mM Tris buffer, pH 7.7, containing 0.5% BSA. The filter was washed 3 times with approximately 3 ml of cold 50 mM Tris buffer, pH 7.7. The filter circles were then punched into 12 x 75 mm polystyrene tubes and counted in a gamma counter.
Table II, infra, provides a representative sample of the effectiveness as NK-2 receptor antagonists of many of the compounds of Formula I. The first column provides the Example number of the compound tested. The second column provides either the percent inhibition of neurokinin A binding when the compound is present in a ten micromolar concentration or the amount of compound (in micromolar amounts) necessary to inhibit fifty percent of the binding of neurokinin A. Those values which represent IC₅₀ values are designated by parentheses.

T1 sequence (P25103 whole entry): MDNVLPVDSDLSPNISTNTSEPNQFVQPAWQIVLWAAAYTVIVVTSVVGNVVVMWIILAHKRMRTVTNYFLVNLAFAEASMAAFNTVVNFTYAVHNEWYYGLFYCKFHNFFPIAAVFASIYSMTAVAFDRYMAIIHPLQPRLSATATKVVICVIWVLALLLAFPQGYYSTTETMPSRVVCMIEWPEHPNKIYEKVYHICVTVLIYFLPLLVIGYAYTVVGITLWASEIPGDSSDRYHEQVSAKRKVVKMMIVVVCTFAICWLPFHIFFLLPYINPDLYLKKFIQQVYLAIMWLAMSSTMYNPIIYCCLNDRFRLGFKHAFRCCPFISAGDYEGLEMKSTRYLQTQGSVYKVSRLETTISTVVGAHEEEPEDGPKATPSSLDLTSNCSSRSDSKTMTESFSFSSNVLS

COc1cccc(Cn2c(-c3cc(OC)c(OC)c(OC)c3)nc3ccccc32)c1 [Example 45, 1-(3-methoxybenzyl)-2-(3,4,5-trimethoxyphenyl)-benzimidazole]
inhibition at 10 µM [1]: 81% | inhibition at 10 µM [2]: 23.2%

COc1ccc(Cn2c(-c3cc(OC)c(OC)c(OC)c3)nc3ccccc32)cc1 [Example 46, 1-(4-methoxybenzyl)-2-(3,4,5-trimethoxyphenyl)-benzimidazole]
inhibition at 10 µM [1]: 56% | inhibition at 10 µM [2]: -1.5%

COc1ccccc1Cn1c(-c2cc(OC)c(OC)c(OC)c2)nc2ccccc21 [Example 47, 1-(2-methoxybenzyl)-2-(3,4,5-trimethoxyphenyl)-benzimidazole]
IC50 [1]: 0.449 µM | inhibition at 10 µM [2]: 67.7%

COc1cc(-c2nc3ccccc3n2Cc2ccccc2F)cc(OC)c1OC [Example 48, 1-(2-fluorobenzyl)-2-(3,4,5-trimethoxyphenyl)-benzimidazole]
IC50 [1]: 1.39 µM | inhibition at 10 µM [2]: 44.2%

COc1cc(-c2nc3ccccc3n2Cc2ccccc2C(F)(F)F)cc(OC)c1OC [Example 49, 1-(2-trifluoromethylbenzyl)-2-(3,4,5-trimethoxyphenyl)-benzimidazole]
IC50 [1]: 0.721 µM | inhibition at 10 µM [2]: 82%

COc1cc(-c2nc3ccccc3n2Cc2ccccc2I)cc(OC)c1OC [Example 50, 1-(2-iodobenzyl)-2-(3,4,5-trimethoxyphenyl)-benzimidazole]
IC50 [1]: 0.823 µM | inhibition at 10 µM [2]: 87.4%

COc1cc(-c2nc3ccccc3n2Cc2ccccc2Br)cc(OC)c1OC [Example 51, 1-(2-bromobenzyl)-2-(3,4,5-trimethoxyphenyl)-benzimidazole]
IC50 [1]: 0.591 µM | inhibition at 10 µM [2]: 84.8%

COc1cc(-c2nc3ccccc3n2Cc2c(Cl)cccc2Cl)cc(OC)c1OC [Example 52, 1-(2,6-dichlorobenzyl)-2-(3,4,5-trimethoxyphenyl)-benzimidazole]
inhibition at 10 µM [1]: 20% | inhibition at 10 µM [2]: -7.1%

COc1cc(-c2nc3ccccc3n2Cc2ccc(Cl)c(Cl)c2)cc(OC)c1OC [Example 53, 1-(3,4-dichlorobenzyl)-2-(3,4,5-trimethoxyphenyl)-benzimidazole]
inhibition at 10 µM [1]: 45% | inhibition at 10 µM [2]: 33.4%

COc1cc(-c2nc3ccccc3n2Cc2ccc(Cl)cc2Cl)cc(OC)c1OC [Example 54, 1-(2,4-dichlorobenzyl)-2-(3,4,5-trimethoxyphenyl)-benzimidazole]
inhibition at 10 µM [1]: 56% | inhibition at 10 µM [2]: 86.2%

COc1cc(-c2nc3ccccc3n2Cc2ccc(C)cc2)cc(OC)c1OC [Example 55, 1-(4-methylbenzyl)-2-(3,4,5-trimethoxyphenyl)-benzimidazole]
inhibition at 10 µM [1]: 53% | inhibition at 10 µM [2]: 21.9%

Cc1cccc(-c2nc3ccccc3n2Cc2ccccc2Cl)c1 [Example 56, 1-(2-chlorobenzyl)-2-(3-methylphenyl)-benzimidazole]
inhibition at 10 µM [1]: 71% | inhibition at 10 µM [2]: 63.7%

Cc1cccc(-c2nc3ccccc3n2Cc2cccc(Cl)c2)c1 [Example 57, 1-(3-Chlorobenzyl)-2-(3-methylphenyl)benzimidazole]
IC50 [1]: 2.65 µM | inhibition at 10 µM [2]: 50.8%

Cc1cccc(-c2nc3ccccc3n2Cc2ccc(Cl)cc2)c1 [Example 58, 1-(4-Chlorobenzyl)-2-(3-methylphenyl)benzimidazole]
inhibition at 10 µM [1]: 29% | inhibition at 10 µM [2]: 42.9%

Cc1cccc(-c2nc3ccccc3n2Cc2ccccc2Br)c1 [Example 60, 1-(2-Bromobenzyl)-2-(3-methylphenyl)benzimidazole]
inhibition at 10 µM [1]: 72% | inhibition at 10 µM [2]: 62.6%

Cc1cccc(-c2nc3ccccc3n2Cc2ccccc2I)c1 [Example 61, 1-(2-Iodobenzyl)-2-(3-methylphenyl)benzimidazole]
inhibition at 10 µM [1]: 66% | inhibition at 10 µM [2]: 60.1%

Cc1cccc(-c2nc3ccccc3n2Cc2c(Cl)cccc2Cl)c1 [Example 62, 1-(2,6-Dichlorobenzyl)-2-(3-methylphenyl)benzimidazole]
inhibition at 10 µM [1]: 31% | inhibition at 10 µM [2]: 23.1%

Cc1cccc(-c2nc3ccccc3n2Cc2ccc(Cl)c(Cl)c2)c1 [Example 64, 1-(3,4-Dichlorobenzyl)-2-(3-methylphenyl)benzimidazole]
inhibition at 10 µM [1]: 41% | inhibition at 10 µM [2]: 58.7%

COc1cc(-c2nc3ccc(OCCN4CCOCC4)cc3n2Cc2ccccc2)cc(OC)c1OC [Example 70, 1-benzyl-2-(3,4,5-trimethoxyphenyl)-6-[2-(4-morpholinyl)ethoxy]benzimidazole]
IC50 [1]: 0.085 µM | inhibition at 10 µM [2]: 63.7%

COc1cc(-c2nc3ccc(OCCN4CCCCC4)cc3n2Cc2ccccc2)cc(OC)c1OC [Example 71, 1-benzyl-2-(3,4,5-trimethoxyphenyl)-6-[2-(1-piperidinyl)ethoxy]benzimidazole]
IC50 [1]: 0.06 µM | inhibition at 10 µM [2]: 70.1%

COc1cc(-c2nc3ccc(OCCN4CCCC4)cc3n2Cc2ccccc2)cc(OC)c1OC [Example 72, 1-benzyl-2-(3,4,5-trimethoxyphenyl)-6-[2-(1-pyrroldinyl)ethoxy]benzimidazole]
IC50 [1]: 0.074 µM | inhibition at 10 µM [2]: 53.8%

COc1cc(-c2nc3ccc(OCCN4CCCCCC4)cc3n2Cc2ccccc2)cc(OC)c1OC [Example 73, 1-benzyl-2-(3,4,5-trimethoxyphenyl)-6-[2-(1-hexamethyleneiminyl)ethoxy]benzimidazole]
IC50 [1]: 0.052 µM | inhibition at 10 µM [2]: 83.5%

COc1cc(-c2nc3ccc(OCCCN4CCCCC4)cc3n2Cc2ccccc2)cc(OC)c1OC [Example 74, 1-benzyl-2-(3,4,5-trimethoxyphenyl)-6-[3-(1-piperidinyl)propoxy]benzimidazole]
IC50 [1]: 0.085 µM | inhibition at 10 µM [2]: 78%

COc1cc(-c2nc3ccc(OCCCCl)cc3n2Cc2ccccc2)cc(OC)c1OC [Example 75, 1-benzyl-2-(3,4,5-trimethoxyphenyl)-6-(3-chloropropoxy)benzimidazole]
IC50 [1]: 0.814 µM | inhibition at 10 µM [2]: 86.3%

COc1cc(-c2nc3ccc(OCCCl)cc3n2Cc2ccccc2)cc(OC)c1OC [Example 76, 1-benzyl-2-(3,4,5-trimethoxyphenyl)-6-(2-chloroethoxy)benzimidazole]
IC50 [1]: 0.329 µM | IC50 ([2]; values in parentheses, amount necessary to inhibit fifty percent of the binding of neurokinin A): 7.48 µM
